From paper PMC9114115, “Property space mapping of Pseudomonas aeruginosa permeability to small molecules” (Scientific Reports, 2022)
Counter-ions that a name gives are not always drawn.

These compounds were tested on P. aeruginosa PAO1 cells (assay: LC–MS quantification of intracellular accumulation, PAO1). Conditions: 1 min incubation, 10-80 µM.
Protocol: (§1) PAO1-Pore and PΔ3-Pore were grown at 37 °C overnight with shaking at 225 rpm in 50 mM MOPS-M9 (pH 7.2) Minimal Medium supplemented with 1% glycerol[42],[43].
(§2) The next day, cells were sub-cultured (1.5:100) in fresh MOPS-M9 medium and grown for 16 h. The cultures were then split into two flasks and one of them was induced with 0.1 mM IPTG. Cells incubated for additional 4 h until OD600 reached ~ 1.0 and harvested by centrifugation at 3,275xg for 20 min in RT, washed and concentrated 10X in the spent medium. Assays were performed in 96-well plates in a final volume of […]. Cells were incubated with 10, 20, 40, 80 µM of compounds and after 1- and 40-min incubation at RT, 100 µL cell aliquots were collected by vacuum filtration onto 1.0 µm Glass Fiber Type B filters. For no-cell controls, compounds were diluted to 10, 20, 40, 80 µM final concentration in the same medium, incubated for 1 min and 40 min and filtered onto the same plates. The cell loaded and cell-free filters were dried, removed from plates and placed into 100% methanol at -80 °C for at least 10 min. Filter-bound material was extracted by water bath sonication for 1 min. Cell and filter debris were separated by ultracentrifugation at 45,000 rpm (TLA55 rotor, Beckman) for 8 min at 16 °C and the pellet re-extracted with 80% methanol in water by sonication for 15 min followed by ultracentrifugation at the same conditions. Supernatants from two extractions were combined. For the compound quantification, 5 µL of solution was analyzed in triplicate.
(§3) Calibration curves for MS analyses of compounds were generated in the same experiment by mixing compound at increasing concentrations with the sonicated PAO1 cell extracts. […] Azithromycin was used as a positive control in all experiments.
(§4) Samples were processed in positive ion mode. An Eclipse plus C18 Rapid Resolution HD column (1.8 μm, 2.1 × 50 mm, Agilent, USA) was used for separation. The flow rate was 0.6 mL/min using the following gradient: 0 to 1 min (0- 20% ACN), 1 to 4 min (20- 80% ACN), 4 to 5.1 min (80–100% ACN), 5.1 to 6.30 (100% ACN). Solvents contained 0.1% formic acid to promote positive ion formation in the electrospray. […] Data were analyzed using Agilent Masshunter workstation quantitative analysis v. B.10 software.
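Also: slope of accumulation versus external concentration fitted as a line through zero.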

SMILES	Concentration slopes of accumulation, PAO1_1 min
COCCCC/C(=N\OCCN)c1ccc(C(F)(F)F)cc1 [OU-0000742, Fluvoxamine]	3.55
CC(CCc1ccccc1)NCC(O)c1ccc(O)c(C(N)=O)c1 (centres unmarked) [OU-0000748, Labetalol HCl]	15.94
CC(Cc1ccc(O)cc1)NCC(O)c1cc(O)cc(O)c1 (centres unmarked) [OU-0000755, Fenoterol HBr]	1.15
CCOC(=O)NC(=S)Nc1ccccc1NC(=S)NC(=O)OCC [OU-0000837, Thiophanate]	3.24

Same assay, conditions: 40 min incubation, 10-80 µM

SMILES	Concentration slopes of accumulation, PAO1_40 min
COCCCC/C(=N\OCCN)c1ccc(C(F)(F)F)cc1 [OU-0000742, Fluvoxamine]	4.45
CC(CCc1ccccc1)NCC(O)c1ccc(O)c(C(N)=O)c1 (centres unmarked) [OU-0000748, Labetalol HCl]	14.89
CC(Cc1ccc(O)cc1)NCC(O)c1cc(O)cc(O)c1 (centres unmarked) [OU-0000755, Fenoterol HBr]	1.72
CCOC(=O)NC(=S)Nc1ccccc1NC(=S)NC(=O)OCC [OU-0000837, Thiophanate]	3.72

The compounds below were run on P. aeruginosa PAO1-Pore cells (assay: LC–MS quantification of intracellular accumulation, PAO1-Pore). Conditions: 1 min incubation, 10-80 µM.
Protocol: as §1, §2, §3, §4

SMILES	Concentration slopes of accumulation, PAO1-Pore_1 min
COCCCC/C(=N\OCCN)c1ccc(C(F)(F)F)cc1 [OU-0000742, Fluvoxamine]	6.04
CC(CCc1ccccc1)NCC(O)c1ccc(O)c(C(N)=O)c1 (centres unmarked) [OU-0000748, Labetalol HCl]	21.98
CC(Cc1ccc(O)cc1)NCC(O)c1cc(O)cc(O)c1 (centres unmarked) [OU-0000755, Fenoterol HBr]	1.22
CCOC(=O)NC(=S)Nc1ccccc1NC(=S)NC(=O)OCC [OU-0000837, Thiophanate]	3.05

Same assay, conditions: 40 min incubation, 10-80 µM

SMILES	Concentration slopes of accumulation, PAO1-Pore_40 min
COCCCC/C(=N\OCCN)c1ccc(C(F)(F)F)cc1 [OU-0000742, Fluvoxamine]	6.15
CC(CCc1ccccc1)NCC(O)c1ccc(O)c(C(N)=O)c1 (centres unmarked) [OU-0000748, Labetalol HCl]	21.99
CC(Cc1ccc(O)cc1)NCC(O)c1cc(O)cc(O)c1 (centres unmarked) [OU-0000755, Fenoterol HBr]	2.13
CCOC(=O)NC(=S)Nc1ccccc1NC(=S)NC(=O)OCC [OU-0000837, Thiophanate]	1.80

Each compound was assayed on P. aeruginosa PΔ3-Pore cells (assay: LC–MS quantification of intracellular accumulation, PΔ3-Pore). Conditions: 1 min incubation, 10-80 µM.
Protocol: as §1, §2, §3, §4

SMILES	Concentration slopes of accumulation, PΔ3-Pore_1 min
COCCCC/C(=N\OCCN)c1ccc(C(F)(F)F)cc1 [OU-0000742, Fluvoxamine]	6.28
CC(CCc1ccccc1)NCC(O)c1ccc(O)c(C(N)=O)c1 (centres unmarked) [OU-0000748, Labetalol HCl]	23.35
CC(Cc1ccc(O)cc1)NCC(O)c1cc(O)cc(O)c1 (centres unmarked) [OU-0000755, Fenoterol HBr]	2.02
CCOC(=O)NC(=S)Nc1ccccc1NC(=S)NC(=O)OCC [OU-0000837, Thiophanate]	14.84

Same assay, conditions: 40 min incubation, 10-80 µM

SMILES	Concentration slopes of accumulation, PΔ3-Pore_40min
COCCCC/C(=N\OCCN)c1ccc(C(F)(F)F)cc1 [OU-0000742, Fluvoxamine]	6.18
CC(CCc1ccccc1)NCC(O)c1ccc(O)c(C(N)=O)c1 (centres unmarked) [OU-0000748, Labetalol HCl]	22.27
CC(Cc1ccc(O)cc1)NCC(O)c1cc(O)cc(O)c1 (centres unmarked) [OU-0000755, Fenoterol HBr]	2.24
CCOC(=O)NC(=S)Nc1ccccc1NC(=S)NC(=O)OCC [OU-0000837, Thiophanate]	13.42

These compounds were tested on P. aeruginosa PΔ3 cells (assay: not given). Conditions: 1 min incubation, 10-80 µM.
Protocol: as §1, §2, §3, §4

SMILES	Concentration slopes of accumulation, PΔ3_1 min
COCCCC/C(=N\OCCN)c1ccc(C(F)(F)F)cc1 [OU-0000742, Fluvoxamine]	4.15
CC(CCc1ccccc1)NCC(O)c1ccc(O)c(C(N)=O)c1 (centres unmarked) [OU-0000748, Labetalol HCl]	17.87
CC(Cc1ccc(O)cc1)NCC(O)c1cc(O)cc(O)c1 (centres unmarked) [OU-0000755, Fenoterol HBr]	2.24
CCOC(=O)NC(=S)Nc1ccccc1NC(=S)NC(=O)OCC [OU-0000837, Thiophanate]	3.05

Same assay, conditions: 40 min incubation, 10-80 µM

SMILES	Concentration slopes of accumulation, PΔ3_40 min
COCCCC/C(=N\OCCN)c1ccc(C(F)(F)F)cc1 [OU-0000742, Fluvoxamine]	4.97
CC(CCc1ccccc1)NCC(O)c1ccc(O)c(C(N)=O)c1 (centres unmarked) [OU-0000748, Labetalol HCl]	22.85
CC(Cc1ccc(O)cc1)NCC(O)c1cc(O)cc(O)c1 (centres unmarked) [OU-0000755, Fenoterol HBr]	1.99
CCOC(=O)NC(=S)Nc1ccccc1NC(=S)NC(=O)OCC [OU-0000837, Thiophanate]	1.80
